# Experimental data published in PubChem BioAssay (NCI).
# Values joined by “and” are separate entries in the source; they are usually repeats but may differ in a detail not shown here. Identical values can stand only once.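 Exposure lasted 48 hours, with cells grown in 96-well plates and compounds tested at five concentrations. GI50 = concentration required for 50% inhibition of growth. At the TGI there is no net growth.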
# What was measured:
# Assay in all cases: inhibition of tumour cell growth, NCI panel, 48 h
# HCC-2998 colon = tested on: HCC-2998 colon
# SK-MEL-2 melanoma = tested on: SK-MEL-2 melanoma
# OVCAR-3 ovarian = tested on: OVCAR-3 ovarian
# DU-145 prostate = tested on: DU-145 prostate
# HOP-92 NSCLC = tested on: HOP-92 NSCLC
# OVCAR-4 ovarian = tested on: OVCAR-4 ovarian
# RPMI-8226 leukemia = tested on: RPMI-8226 leukemia
# DLD-1 colon = tested on: DLD-1 colon
# SNB-78 CNS = tested on: SNB-78 CNS
# NCI-H522 lung = tested on: NCI-H522 lung
SMILES,TGI (HCC-2998 colon),TGI (SK-MEL-2 melanoma),TGI (OVCAR-3 ovarian),TGI (DU-145 prostate),TGI (HOP-92 NSCLC),TGI (OVCAR-4 ovarian),TGI (RPMI-8226 leukemia),TGI (DLD-1 colon),TGI (SNB-78 CNS),TGI (NCI-H522 lung),GI50 (SK-MEL-2 melanoma),GI50 (OVCAR-3 ovarian),GI50 (HOP-92 NSCLC),GI50 (OVCAR-4 ovarian),GI50 (HCC-2998 colon),GI50 (DLD-1 colon),GI50 (SNB-78 CNS),GI50 (NCI-H522 lung)
O=c1cc(-c2ccccc2)oc2ccc(Cl)cc12,> 100 µM,> 100 µM,> 100 µM,> 100 µM,73.2 µM,> 96.3 µM,> 100 µM,> 100 µM,> 100 µM,> 100 µM,,,,,,,,
COC(=O)CC1(O)C(=O)OCc2c1cc1n(c2=O)Cc2c-1nc1ccccc1c2OC (stereo not given),> 100 µM,74.6 µM,> 57.4 µM,,92.2 µM,> 36.1 µM,23.2 µM,> 100 µM,> 100 µM,16.3 µM,,,,,,,,
C/C=C/C=C/c1cc2cc3c(c(O)c2c(=O)[nH]1)C1(CC3)C(O)=c2c(=O)c3c(=O)cc(OC)c(=O)c=3c(=O)c2=C1O (stereo not given),1.33 µM and 11.3 µM,14.2 µM and 4.86 µM,1.37 µM and 8.57 µM,15.8 µM,2.28 µM,11.3 µM and 8.37 µM,0.678 µM and 2.2 µM,17.9 µM,> 56.7 µM,,0.249 µM and 0.885 µM,0.2 µM and 1.7 µM,0.415 µM,0.311 µM and 1.08 µM,,,,
O=C1/C(=C/c2ccc(Cl)cc2)CCC1CNc1ccc(Cl)cc1 (stereo not given),21.6 µM,58.5 µM,21.5 µM,31.8 µM,50.4 µM,54.5 µM,6.68 µM,10.7 µM,> 100 µM,3.89 µM,,,,,,,,
CC1[C@@]2(CCC(C)(C)O2)O[C@@H]2C=C3C4CCC5Cc6nc7c(nc6C[C@@]5(C)C4C[C@H](O)[C@@]3(C)[C@]12O)CC1CCC2C3=C[C@H]4O[C@@]5(O[C@@](C)(CO)C[C@@H]5O)C(C)[C@@]4(O)[C@]3(C)[C@@H](O)CC2[C@]1(C)C7 (stereo not given in full),0.86 µM,,1.11 µM,,,0.81 µM,0.032 µM,1.11 µM,0.464 µM and 0.312 µM,0.418 µM and 0.0804 µM,0.00444 µM,0.435 µM,0.00228 µM,0.0921 µM,0.401 µM,0.0805 µM,0.0015 µM,0.0132 µM
CC(=O)CCC1(c2ccccc2)OC(=O)C(C#N)=C1c1ccccc1 (stereo not given),> 100 µM,> 100 µM,> 100 µM,,> 100 µM,> 100 µM,> 100 µM,> 100 µM,> 100 µM,4.53 µM,,,,,,,,
CC(C)c1ccc(O)c(Cc2cc(C(C)C)cc(Cc3cc(C(C)C)ccc3O)c2O)c1,3.2 µM,3.06 µM,3.03 µM,,3.33 µM,2.68 µM,4.75 µM,4.15 µM,4.54 µM,2.92 µM,,,,,,,,
